# Reference: patent publication US20240294572A1, “Antimicrobial Peptides” (priority 2021, published 2024)
# Legend:
# [1] = tested on: human red blood cells (hRBCs); settings: 50% hemolysis; LL-37 value taken from Narayana, et al.; cited from earlier work
# [2] = tested on: E. coli ATCC 25922; type: cell-based
# How it was run: (§1)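 Broth microdilution after CLSI M07-A10, modified: 2-fold peptide dilutions plus log-phase bacteria diluted to 0.001 OD, incubated overnight at 37° C, absorbance read at 630 nm. Medium effects probed with varied pH, NaCl or human serum in TSB (control pH 7.4), with 10%, 50%, 100% TSB, and with MHB.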
# [3] = tested on: S. aureus USA300 LAC; type: cell-based; settings: USA300
# How it was run: as §1
# [4] = tested on: E. coli ATCC 25922; settings: LL-37 value taken from Narayana, et al.; cited from earlier work
# [5] = tested on: Klebsiella pneumonia ATCC 13883; settings: LL-37 value taken from Narayana, et al.; cited from earlier work
# [6] = tested on: P. aeruginosa PAO1; settings: LL-37 value taken from Narayana, et al.; cited from earlier work
smiles,measurement,setting,value
"CC[C@H](C)[C@H](NC(=O)[C@H](CCCCN)NC(=O)[C@H](CCC(=O)O)NC(=O)[C@H](CCCCN)NC(=O)[C@H](CO)NC(=O)[C@H](CCCCN)NC(=O)[C@H](CCCNC(=N)N)NC(=O)[C@H](Cc1ccccc1)NC(=O)[C@H](Cc1ccccc1)NC(=O)[C@H](CC(=O)O)NC(=O)CNC(=O)[C@H](CC(C)C)NC(=O)[C@@H](N)CC(C)C)C(=O)NCC(=O)N[C@@H](CCCCN)C(=O)N[C@@H](CCC(=O)O)C(=O)N[C@@H](Cc1ccccc1)C(=O)N[C@@H](CCCCN)C(=O)N[C@@H](CCCNC(=N)N)C(=O)N[C@H](C(=O)N[C@H](C(=O)N[C@@H](CCC(N)=O)C(=O)N[C@@H](CCCNC(=N)N)C(=O)N[C@H](C(=O)N[C@@H](CCCCN)C(=O)N[C@@H](CC(=O)O)C(=O)N[C@@H](Cc1ccccc1)C(=O)N[C@@H](CC(C)C)C(=O)N[C@@H](CCCNC(=N)N)C(=O)N[C@@H](CC(N)=O)C(=O)N[C@@H](CC(C)C)C(=O)N[C@H](C(=O)N1CCC[C@H]1C(=O)N[C@@H](CCCNC(=N)N)C(=O)N[C@H](C(=O)N[C@@H](CCC(=O)O)C(=O)N[C@@H](CO)C(N)=O)[C@@H](C)O)C(C)C)[C@@H](C)CC)C(C)C)[C@@H](C)CC [LL-37, reference compound]",HC50,[1],170 µM
same,"Minimal inhibitory concentration against E. coli, 10% TSB",[2],1.6 µM
same,"Minimal inhibitory concentration against E. coli, 50% TSB",[2],6.2 µM
same,"Minimal inhibitory concentration against E. coli, 100% MHB",[2],6.2 µM
same,"Minimal inhibitory concentration against E. coli, 100% TSB",[2],6.25 to 12.5 µM
same,"Minimal inhibitory concentration against S. aureus, 10% TSB",[3],50 µM
same,"Minimal inhibitory concentration against S. aureus, 50% TSB",[3],> 50 µM
same,"Minimal inhibitory concentration against S. aureus, 100% MHB",[3],>50 µM
same,"Minimal inhibitory concentration against S. aureus, 100% TSB",[3],> 50 µM
same,MIC (μM) EC,[4],3.1 to 6.2 µM
same,MIC (μM) KP,[5],6.2 µM
same,MIC (μM) PA,[6],>50 µM
